Assay results reported in patent US20100069388A1, “N-HYDROXYACRYLAMIDE COMPOUNDS” (ASTELLAS PHARMA INC., priority 2006, published 2010).
pIC50: −log10 of the molar value. Structures can show the parent of a compound that is named as a salt.

Legend:
[1] = system: human histone deacetylase (partially purified from Jurkat cells); assay: Test 1: Determination of histone deacetylase inhibitor activity ([3H] acetyl histone deacetylation); type: biochemical; conditions: partially purified human HDAC from Jurkat cells, [3H] acetyl-labeled histones, 25° C., 30 minutes; read-out: Test 1: HDAC inhibitory activity IC50
Experimental: The partial purification of human histone deacetylase, the preparation of [^3H] acetyl histones, and the assay for histone deacetylase activity were performed basically according to the method as proposed by Yoshida et al. as follows.
The human histone deacetylase was partially purified from human T cell leukemia Jurkat cells. Jurkat cells (5×10^8 cells) were suspended in 40 mL of the HDA buffer consisting of 15 mM potassium phosphate, pH 7.5, 5% glycerol and 0.2 mM EDTA. After homogenization, nuclei were collected by centrifugation (35,000×g, 10 min) and homogenized in 20 mL of the same buffer supplemented with 1 M (NH4)2SO4. The viscous homogenate was sonicated and clarified by centrifugation (35,000×g, 10 min), and the deacetylase was precipitated by raising the concentration of (NH4)2SO4 to 3.5 M. The precipitated protein was dissolved in 10 mL of the HDA buffer and dialyzed against 4 liters of the same buffer. The dialyzate was then loaded onto a DEAE-cellulose (Whatman DE52) column (25×85 mm) equilibrated with the same buffer and eluted with 300 mL of a linear gradient (0-0.6 M) of NaCl. A single peak of histone deacetylase activity appeared between 0.3 and 0.4 M NaCl.
To obtain [^3H] acetyl-labeled histone as the substrate for the histone deacetylase assay, 1×10^8 cells of Jurkat in 20 mL of RPMI-1640 medium (supplemented with 10% FBS, penicillin (50 units/mL) and streptomycin (50 μg/mL)) were incubated with 300 MBq [^3H] sodium acetate in the presence of 5 mM sodium butyrate for 30 minutes in 5% CO2-95% air atmosphere at 37° C. in a 75 cm^2 flask, harvested into a centrifuge tube (50 mL), collected by centrifugation at 1000 rpm for 10 minutes, and washed once with phosphate-buffered saline. The washed cells were suspended in 15 mL of ice-cold lysis buffer (10 mM Tris-HCl, 50 mM sodium bisulfite, 1% Triton X-100, 10 mM MgCl2, 8.6% sucrose, pH 6.5). After Dounce homogenization (30 stroke), the nuclei were collected by centrifugation at 1000 rpm for 10 minutes, washed 3 times with 15 mL of the lysis buffer, and once with 15 mL of ice-cooled washing buffer (10 mM Tris-HCl, 13 mM EDTA, pH 7.4) successively. The pellet was suspended in 6 mL of ice-cooled water using a mixer, and 68 μl of H2SO4 was added to the suspension to give a concentration of 0.4 N. After incubation at 4° C. for 1 hour, the suspension was centrifuged for 5 minutes at 15,000 rpm, and the supernatant was taken and mixed with 60 mL of acetone. After overnight incubation at −20° C., the coagulated material was collected by microcentrifugation, air-dried, and stored at −80° C.
For the standard assay, 10 μl of [^3H] acetyl-labeled histones were added to 90 μl of the enzyme fraction, and the mixture was incubated at 25° C. for 30 minutes. The reaction was stopped by addition of 10 μl of HCl aq. The released [^3H] acetic acid was extracted with 1 mL of ethyl acetate, and 0.9 mL of the solvent layer was taken into 10 mL of toluene scintillation solution for determination of radioactivity.

[2] = system: splenic cells of Lewis rats; assay: Test 2: Determination of T-cell growth inhibitor activity (T lymphocyte blastogenesis, Concanavalin A, AlamarBlue); type: cell-based; conditions: Lewis rat splenic cells, Concanavalin A 1 μg/mL, 72 hours, read-out: Test 2: T-cell growth inhibitory activity IC50
Experimental: The T lymphocyte blastogenesis test was performed in microtiter plates with each well containing 1.5×10^5 splenic cells of Lewis rats in 0.1 mL RPMI-1640 medium supplemented with 10% fetal bovine serum (FBS), […] 2-mercaptoethanol, penicilln (100 units/mL) and streptomycin (100 μg/mL), to which Concanavalin A (1 μg/mL) was added. The cells were incubated at 37° C. in a humidified atmosphere of 5% CO2 for 72 hours. After the culture period, suppressive activities of the test compounds in T lymphocyte blastogenesis were quantified by AlamarBlue (trademark) Assay. The test samples were dissolved in DMSO and further diluted with RPMI-1640 medium and added to the culture. The activities of the test compounds were expressed as IC50.

pIC50 [1] | SMILES | pIC50 [2]
8.77 | O=C(/C=C/c1cnc(NCCNC(=O)c2ccc(Cl)cc2)c(Cl)c1)NO [Example 3, 4-chloro-N-[2-({3-chloro-5-[(1E)-3-(hydroxyamino)-3-oxo-1-propen-1-yl]-2-pyridinyl}amino)ethyl]benzamide hydrochloride] | 7.74
8.17 | O=C(/C=C/c1cnc(NCCNC(=O)C2CCCCC2)c(Cl)c1)NO [Example 10] | 7.77
8.06 | C[C@H](CN(C)Cc1ccc(Cl)cc1)Nc1ncc(/C=C/C(=O)NO)cc1Cl [Example 11] | 8.21
8.22 | O=C(/C=C/c1cnc(NCCOc2ccccc2)cn1)NO [Example 23] | 7.68
8.40 | C[C@H](CN(C)Cc1ccccc1)Nc1cnc(/C=C/C(=O)NO)cn1 [Example 36] | 8.82
9.11 | C[C@H](CN(C)CC1CCCCC1)Nc1cnc(/C=C/C(=O)NO)cn1 [Example 39] | 9.64
7.60 | C[C@@H](Nc1ncc(/C=C/C(=O)NO)cc1Cl)C(=O)NCC1CCCCC1 [Example 49, N^2-{3-chloro-5-[(1E)-3-(hydroxyamino)-3-oxoprop-1-en-1-yl]pyridin-2-yl}-N^1-(cyclohexylmethyl)-D-alaninamide] | 7.77
8.04 | CC(C)[C@@H](Nc1cnc(/C=C/C(=O)NO)cn1)C(=O)NCC1CCCCC1 [Example 57] | 8.33
8.41 | C[C@H](CNC(=O)C1CCCCC1)Nc1cnc(/C=C/C(=O)NO)cn1 [Example 66] | 7.68
8.09 | C[C@@H](Nc1cnc(/C=C/C(=O)NO)cn1)C(=O)NC1Cc2ccccc2C1 [Example 86] | 7.55
8.64 | C[C@@H](Nc1cnc(/C=C/C(=O)NO)cn1)C(=O)NC1CCCCCC1 [Example 87] | 8.49
8.57 | C[C@@H](Nc1cnc(/C=C/C(=O)NO)cn1)C(=O)N[C@]12CC3C[C@H](C[C@H](C3)C1)C2 [Example 88] | 8.82
8.82 | CC(C)[C@@H](Nc1cnc(/C=C/C(=O)NO)cn1)C(=O)Nc1ccccc1 [Example 91] | 8.59
